Source: patent US20240180931A1, “CANNABINOIDS AND USES THEREOF IN TREATMENT OF A DISEASE” (TECHNION RESEARCH & DEVELOPMENT FOUNDATION LIMITED, priority 2021, published 2024)

How the values were obtained:
[1] = tested on: pCREB^S133 / ATF1 / PCNA in HaCaT cells; experiment: western blot analysis of treated HaCaT cells (pCREB, ATF1, PCNA); format: cell-based, human; conditions: for levels of active pCREB^S133 or ATF1 (western blot): HaCaT treated cells (FIG. 11B)
Method: (§1) In order to examine the underlying mechanism, the inventors next examined whether increased repair and proliferation is facilitated via the CAMP response element binding protein (CREB). First, the inventors utilized human keratinocyte cells (HaCaT). Cells were starved (serum-free) for 16 hours and then administered with Dimethyl sulfoxide (DMSO; carrier/solvent control), White Widow (WW) extract or cannabigerol (CBG). Next, the inventors performed immunofluorescence for activated phosphorylated CREB using specific antibodies.
In order to verify these findings, the inventors next performed western blot analysis of treated cells (as outlined above).

[2] = tested on: 5%-Imiquimod (IMQ) model of psoriasis; experiment: topical 5%-Imiquimod (IMQ) model of psoriasis in mice; format: in vivo
Method: The therapeutic potentials of five different cannabis strains were determined (namely, Infinity (INF), White Widow (WW), Cannatonic (CNT), Dance Hall (DH), and Green Crack (GC)), utilizing an in vivo setting of skin pathology. For this aim, the topical 5%-Imiquimod (IMQ) model of psoriasis (FIGS. 1A-1B) was employed. In this model, 62.5 mg of IMQ cream is applied topically on depilated dorsal skins of mice (Fits et al., 2009) every second day concurrent with administration of extracts. Extracts were administered at 5 mg/kg dose via intraperitoneal (i.p.) injection.
Examining the cannabinoid constituents of INF, the inventors next applied IMQ and treated mice with either control (vehicle only), the 5 mg/kg INF extract, 1.6 mg/kg CBN, 0.1 mg/kg CBG, 3.7 mg/kg THC, or 0.04 mg/kg CBC (FIG. 3A).
Further, the recruitment of CD3^+ T cells to the epidermis was examined in 5% IMQ-treated skins.

[3] = tested on: tail skin sebaceous glands (SGs); experiment: DBL-induced acne in mouse tail skin in vivo; set-up: species or system mice; conditions: DBL intradermal at tail base every second day for 10 days, treated from day 4; 5 mg/kg INF extract, 1.6 mg/kg CBN
[4] = tested on: NF-kappa-B (p65; NF-κB) signaling; experiment: TNF-α-induced NF-κB (p65) translocation in Blimp1+ sebocytes, immunofluorescence; format: cell-based, mouse; conditions: serum starved 16 hours, TNF-α (FIGS. 8A-8B)
Method: In order to examine the underlying mechanism, the inventors assessed the effects of INF, THC and CBN in acne and whether it is mediated through downregulation of NF-kappa-B (p65; NF-κB) signaling. NFκB transcription factor is known to be active in acne and high expression of its target genes leads to enhanced proliferation and inflammation (Kang et al., 2005). The inventors utilized mouse primary sebaceous gland progenitors (Blimp1^+ sebocytes). Cells were serum starved for 16 hours and then either non-treated (NTC) or administered with TNF-α along with either DMSO (Ctrl), Infinity (INF) extract, CBN or THC (FIGS. 8A-8B). The inventors next performed immunofluorescence for activated NF-κB using specific antibodies. The present data clearly indicate that in response to TNF-α the NF-κB (p65) transcription factor translocates to the nucleus in Blimp1^+ sebocytes.

[5] = tested on: NF-kappa-B (p65; NF-κB) transcription factor; experiment: TNF-α-induced NF-κB (p65) translocation in HaCaT keratinocytes, immunofluorescence; format: cell-based, Human; conditions: 30 minutes; for translocation of NF-kappa-B (p65) to the nucleus: serum starved 16 hours, extract 1 μg/ml, cannabinoids 10 μM (FIG. 4A)
Method: In order to examine the underlying mechanism, the inventors next examined whether improving health of the epidermis in psoriasis is dependent upon the NF-kappa-B (p65; NF-κB) transcription factor. NF-κB transcription factor is known to be active in psoriasis and high expression of its target genes leads to enhanced proliferation and inflammation (Goldminz et al., 2012). Human keratinocyte cells (HaCaT) were utilized. Cells were serum starved for 16 hours and then either non-treated (NTC) or administered with TNF-α along with either DMSO (Ctrl), Infinity (INF) extract, CBN, CBG, or THC at a concentration according to Table 2. Immunofluorescence was next performed for activated NF-κB using specific antibodies. The present data clearly indicate that, in response to TNF-α, the NF-κB (p65) transcription factor translocated to the nucleus.

[6] = tested on: 1 cm^2 whole-thickness dorsal wounds; experiment: whole-thickness dorsal wound healing and regeneration in mice; format: in vivo; conditions: for wound healing by single cannabinoids, compared with WW strain: IP every second day, CBG 0.11 mg/kg, THC 3.7 mg/kg (FIGS. 10B-10C)
Method: To this end, 1 cm^2 whole-thickness dorsal wounds were inflicted on male or female 8-week-old wildtype (WT; C57BL/6J background) mice (n=at least 3 mice per group) and the wounded mice were treated with 5 mg/kg of each strain via intraperitoneal (IP) injection every two days (FIG. 9D). Dorsal wound coverage was measured by determining wound size (%) relative to the initial wound size.
Next, the inventors sought to understand whether any single cannabinoid component of the WW strain could potentiate the WW-induced phenotypes (FIG. 10A). For this, male and female mice (8-weeks-old) on WT (wild type; C57BL/6J) background were administered IP injections of cannabigerol (CBG; 0.11 mg/kg), tetrahydrocannabinol (THC; 3.7 mg/kg), cannabinol (CBN; 0.155 mg/kg), or cannabichromene (CBC; 0.0375 mg/kg), and dorsal wound was inflicted (n=at least 3 mice per group). Cannabinoid solutions are prepared by dissolving pure cannabinoids in 100% ethanol (EtOH) to a stock concentration of 100 mg/ml. Further dilution was achieved by preparing a 1:1:18 working solution of 100% EtOH:Cremophor:1×PBS. 100 μl was administered via IP injection to each mouse every second day starting from the day of wound infliction.

[7] = tested on: cAMP response element binding protein (CREB); experiment: CREB phosphorylation in HaCaT keratinocytes, immunofluorescence; format: cell-based, human; conditions: serum-free 16 hours, 30 minutes post-stimulation, WW 1 μg/ml, CBG 10 μM (FIG. 11A)
Method: as §1

CREB = CREB phosphorylation in healing wounds in vivo, immunofluorescence; set-up: species or system mice
Description: Thereafter, the inventors examined whether CREB is phosphorylated in healing wounds. The inventors performed full-thickness excisional wounds (as described above) and harvested wounds at 8 days post wound infliction.

[8] = IMQ-treated mice, 5 mg/kg INF extract, 3.7 mg/kg THC (FIGS. 3B-3D)

In the case of `CCCCCc1cc(O)c2c(c1)OC(C)(CCC=C(C)C)C=C2` (centres unmarked) [CBC, cannabichromene], the “levels of active pCREB^S133 or ATF1 (western blot)” value (“levels of active pCREB^S133 or ATF1” below) [1] was “only minimal (if any) effect”.

`CCCCCc1cc(O)c2c(c1)OC(C)(C)c1ccc(C)cc1-2` [CBN, cannabinol] was tested, and the “recruitment of CD3+ T cells to the epidermis” value ([2]; 5% IMQ-treated skins, harvested 8 days post administration (FIG. 5)) was “substantially reduced”, the SG cell hyperproliferation [3] was “prevented” and the sebum over-production [3] was “prevented”. The “translocation of NFκB (p65) to the nucleus” value [4] was “strongly inhibited”, the “inhibition of NF-κB (p65) translocation, comparison between treatments (% nuclear NF-κB positive cells)” value ([5]; 10 μM (FIG. 4B)) was “best results of inhibition” and the “translocation of NF-kappa-B (p65) to the nucleus” value (“translocation of NF-kappa-B (p65)” for short) [5] was “strongly inhibited”. The “levels of active pCREB^S133 or ATF1” value [1] was “only minimal (if any) effect”.

For `CCCCCc1cc(O)c2c(c1)OC(C)(C)[C@@H]1CCC(C)=C[C@@H]21` [THC, tetrahydrocannabinol], the “decreasing abnormal levels of proliferation” value [2, 8] was “comparable”, the “prevention of overgrowth of the epidermis” value [2, 8] was “comparable” and the “wound healing by single cannabinoids, compared with WW strain” value [6] was “to some extent”. The “translocation of NFκB (p65) to the nucleus” value [4] was “strongly inhibited”, the “translocation of NF-kappa-B (p65)” value [5] was “strongly inhibited” and the “levels of active pCREB^S133 or ATF1” value [1] was “only minimal (if any) effect”.

`CCCCCc1cc(O)c(C/C=C(\C)CCC=C(C)C)c(O)c1` [CBG, cannabigerol] was tested, and the “epidermal invaginations in treated skins, 8 days post wounding” value ([6]; CBG 0.11 mg/kg IP every second day (FIG. 10D)) was “considerably more epidermal invaginations”, the “regenerated hair follicles in wounds, 18 days” value ([6]; CBG 0.11 mg/kg IP every second day (FIGS. 10E-10F)) was “striking number of regenerated hair follicles” and the “wound healing by single cannabinoids, compared with WW strain” value [6] was “healed comparably to the WW strain”. The “CREB phosphorylation (pCREB^S133) and translocation to the nucleus” value [7] was “highly phosphorylated”, the “translocation of NF-kappa-B (p65)” value [5] was “had no effect” and the “levels of active pCREB^S133 or ATF1” value [1] was “high phosphorylation of CREB and ATF”. The “proliferation as indicated by the proliferation marker PCNA” value ([1]; HaCaT treated cells (FIG. 11C)) was “increased proliferation”, the “localisation of activated p-CREB in treated wounds” value (CREB; CBG-treated wounds (FIG. 11F)) was “co-expressed with proliferative markers” and the “activated pCREB^S133 in the epidermis adjacent to the wound” value (CREB; full-thickness excisional wounds, 8 days post wound infliction (FIGS. 11D-11E)) was “dramatic increase”.
